The text below walks through data of US20260327195A1, “2-STYRYLBENZOTHIAZOLE DERIVATIVES AS ALPHA-SYNUCLEIN BINDING COMPOUNDS” (Eberhard Karls Universität Tübingen Medizinische Fakultät, priority 2023, published 2026).

Molecules are shown by their SMILES.

Data set [1] concerns the target αSYN pathology in MSA human brain slices (Homo sapiens, UniProt P37840). Briefly: In vitro autoradiography on MSA human brain slices (cerebellum). The format is binding. The procedure: (§1) Post-mortem human brain slices (10 μm thickness) were obtained from and the subject cases were analyzed by the Neurobiobank München (NBM, Munich, Germany), where tissues were collected on the basis of written informed consent according to the guidelines of the ethics committee of the Ludwig-Maximilians-University Munich, Germany (#345-13). The use of brain tissue samples in this study was approved by the ethics committee of the Faculty of Medicine at the University of Tuebingen (Ethics approval number: 813/2018BO2). Table 1 summarizes the information of the subjects from which samples were obtained and used in the experiment.
(§2) For autoradiography, brain slices were thawed for one hour before pre-incubation in BSA buffer for 25 minutes at room temperature. To determine total binding (TB), brain slices were incubated with the tracer (10 nM [^18F]PFSB, 10 nM [^18F]MFSB). Incubation of consecutive slices with the correspondent non-radioactive compounds (10 μM PFSB, […]) was performed to determine non-specific binding (NSB). The non-radioactive compounds were prepared by dissolving in DMSO to 10 mM, which yielded DMSO concentration of ≤0.1% in the final solution. Incubation was carried out for one hour at room temperature with subsequent washing in cold BSA buffer (three times for ten minutes) followed by three dipping in cold deionized water. After drying under UV lamps, brain slices were exposed to a storage phosphor screen (Molecular Dynamics, Caesarea, Israel) for 18 hours, which was then scanned in a phosphor imager (STORM 840, Molecular dynamics, Sunnyvale, CA, USA).
(§3) Quantitative data analysis was performed by drawing four regions of interest (ROIs) in relevant areas of the slice and one ROI next to it for background subtraction (ImageJ 1.8.0_172, National Institute of Health, Bethesda, Maryland, USA) (Schneider, C. A. et al., NIH Image to ImageJ: 25 years of image analysis; Nat Methods 2012, 9 (7), 671-5). Specific binding (SB) is obtained by subtracting NSB from TB. The SB disease/SB control ratio was calculated by dividing by the SB in diseased tissues with the respective SB in control tissues.

The target in data set [2] is αSYN pathology in PD human brain slices (Homo sapiens, UniProt P37840). Briefly: In vitro autoradiography on PD human brain slices (frontal cortex). The data set is classed as binding. To be noted: 10 nM tracer; NSB with 10 μM non-radioactive compound. The protocol:
as §1
For autoradiography, brain slices were thawed for one hour before pre-incubation in BSA buffer for 25 minutes at room temperature. To determine total binding (TB), brain slices were incubated with the tracer (10 nM [^18F]PFSB, 10 nM [^18F]MFSB). […]
Quantitative data analysis was performed by drawing four regions of interest (ROIs) in relevant areas of the slice and one ROI next to it for background subtraction (ImageJ 1.8.0_172, National Institute of Health, Bethesda, Maryland, USA) (Schneider, C. A. et al., NIH Image to ImageJ: 25 years of image analysis; Nat Methods 2012, 9 (7), 671-5). […] The SB disease/SB control ratio was calculated by dividing by the SB in diseased tissues with the respective SB in control tissues.

The nature of data set [3]: In vivo dynamic PET/MR imaging, pharmacokinetic profile. On the set-up: species or system mouse (wild-type female C57BL/6J). To be noted: i.v. The protocol:
The animal experiments were performed in compliance to the European directives on the protection and use of laboratory animals (Council Directive 2010/63/UE) and the German animal welfare act with approval from the local authorities (Regierungspräsidium Tuebingen, R3/19G). Three healthy wild-type female C57BL/6J mice (20.3±0.9 g; 9 weeks old) purchased from Charles River Laboratories (Sulzbach, Germany) were maintained in a vivarium on a 12:12 hour light dark cycle and were kept at a temperature of 22° C. with 40-60% humidity and free access to a standard diet and tap water.
The mice (n=3) were anaesthetized with 1.5% isoflurane evaporated in 100% oxygen at a flow rate of 0.8 L/min. Body temperature of 37° C. was maintained using a feedback temperature control unit. PET imaging studies were performed on Inveon dedicated microPET system (Inveon D-PET, Siemens, Knoxville, TN, USA). Five seconds after the start of PET acquisition, mice were injected intravenously with 9.9±0.6 MBq of [^18F]MFSB (Am=46.2±2.5 GBq/μmol at time of injection). The one-hour dynamic acquisitions were divided into 39 time frames (12×5 s, 6×10 s, 6×30 s, 5×60 s and 10×300 s). A 13-minute transmission measurement with a cobalt-57 point source was performed for attenuation correction. Subsequently, an anatomical magnetic resonance (MR) scan with a 7 Tesla MR scanner (ClinScan, Bruker BioSpin MRI GmbH, Ettlingen, Germany) using a rat whole-body volume coil and the Paravision software (v6.0.1, Bruker, Ettlingen, Germany) using a T2-weighted Turbo-RARE MRI sequence.
The PET image was reconstructed via the OSEM3D/SP-MAP reconstruction algorithm and coregistered to the whole-body MRI scan. Volumes of interest (VOIs) were hand-drawn for the relevant organs based on the MR anatomy in PMOD (PMOD Technologies, Faellanden, Switzerland, Version 4.2) and VOIs at different regions in the mouse brain were extracted using the atlas provided by PMOD to calculate the respective time-activity curves (TACs). Standardized uptake values (SUVs) were calculated as a ratio of the detected activity with injected activity and weight (SUV=(TAC (kBq/cc)/inj. activity (kBq))*weight (g)).

The target of data set [4] is T1, Aβ plaques in AD human brain slices (Homo sapiens, UniProt P05067).
T1 construct: mainly Abeta40/42 cut from APP) in post-mortem AD frontal cortex slices
Put plainly: In vitro autoradiography on AD human brain slices (frontal cortex). The format is binding. The procedure: as §1, §2, §3

Data set [5] has as its system Aβ fibrils. As to conditions: result in words; cited from earlier work.
The subject of data set [6] is αSYN. As to conditions: result in words; cited from earlier work.
Where [7] appears, read: 10 nM tracer, NSB with 10 μM non-radioactive compound.

T1 sequence (P05067 672-713 limits assumed): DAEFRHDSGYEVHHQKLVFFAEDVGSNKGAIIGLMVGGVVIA

With `[18F]c1ccc2nc(/C=C/c3ccc(N4CCOCC4)cc3)sc2c1` [[^18F]MFSB], the “SB disease/SB control, MSA2/cerebellum ctrl” value in data set [1] (setting [7]) is 1.27. Besides, in data set [1] (autoradiography, result in words, FIG. 12), the “selectivity towards αSYN over Aβ” value was “validated the selective binding to αSYN”. Also, the “non-specific binding on MSA sections” value in data set [1] (result in words, hampered quantification of the disease/control SB ratio) is “with [^18F]MFSB was hampered by high NSB”. Moreover, the “SB disease/SB control, PD/frontal cortex ctrl” value in data set [2] is 1.18. For the same compound, the “crossing of the BBB” value in data set [3] (9.9±0.6 MBq, 60 min dynamic PET/MR) is on record as “crossing of the BBB was successful”. Further, the “clearance from lungs and liver” value in data set [3] (after first 2 min, result in words) is recorded as “fast to moderate clearance”. Also, in data set [3] (first 2 min), the “uptake in liver (SUV)” value is reported as “≈ 5 SUV” and the “uptake in lungs (SUV)” value was “≈ 5 SUV”. In data set [3] (result in words), the “clearance (brain), over 60 min” value is listed as “beginning of clearance was observed”; the kidney uptake entry is “Significant kidney uptake”; the “renal excretion, start” value is “renal excretion starting in the first few minutes”. For the same compound, the “SB disease/SB control, AD/frontal cortex ctrl” value in data set [4] (setting [7]) is given as 1.03. Also, the “binding in AD brain regions with Aβ plaques / AD/frontal cortex SB ratio in words” value in data set [4] (result in words, FIG. 12) is “remained favorable”.

Turning to `Cc1ccc2c(c1)sc(-c1ccc(N(C)C)cc1)[n+]2C` [thioflavin T], the “binding to Aβ fibrils” value in data set [5] is on record as “known to bind to Aβ fibrils”. For the same compound, the “binding to αSYN” value in data set [6] is reported as “does not bind to αSYN”.
